Laboratory results published in patent US7064124B2, “NF-κB inhibitor containing substituted benzoic acid derivative as active ingredient” (Daiichi Suntory Pharma Co., Ltd., priority 2001, dated 2006).

Assays:
NF-κB = NF-κB luciferase reporter assay in A549/NF-κBLuc cells stimulated with IL-1β; type: cell-based, human; conditions: Homo sapiens, A549, A549/NF-κBLuc cells; compound added 1 hour before IL-1β, then 3 hours incubation; luciferase activity; read-out: NF-κB Inhibitory Activity (IC50)
Procedure, shortened: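 A549 cells stably carrying an NF-κB-driven luciferase reporter (pNFκB-Luc, G418-selected) pre-treated with compound for 1 h, then stimulated with IL-1β and incubated a further 3 h. Luciferase signal used to derive IC50 for NF-κB inhibition.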

[1] = test system: GalN/LPS-stimulated C3H/HeN female mice; test: In vivo sepsis model (GalN/LPS), compound given intraperitoneally; parameters: species or system mouse; conditions: i.p. 10, 30 or 100 mg/kg immediately after GalN/LPS, vs vehicle group
Protocol: A mixed solution of N-acetyl galactosamine (GalN, 20 mg, Sigma) and lipopolysaccharide (LPS, 5 μg, Sigma) was intraperitoneally administered as a stimulant to a 7-week-old C3H/HeN female mice and immediately thereafter, the compound of Example 112 suspended in a vehicle (0.5% hydroxypropyl cellulose (HPC), produced by Nippon Soda Co., Ltd.) was intraperitoneally administered to give a dose of 10 mg/kg, 30 mg/kg or 100 mg/kg. The TNF-α mRNA levels and the IL-1β mRNA levels in liver 60 minutes after the administration of stimulant each was measured by the real-time PCR method, and the TNF-α levels in plasma after 90 minutes were measured using the mouse TNF-α ELISA kit (Biosource). In the real-time PCR using PRISM7700 (PE Biosystems Japan) according to the protocol of PCR quantitative System (PE Biosystems Japan), mRNA was extracted from the liver and the TNF-α and IL-1β were detected with cDNA obtained by SuperScript Preamplification System (Lifetech Orient) as a template. For the detection, the following primers and TaqMan probes were used.
The RNA level in each sample was corrected by the expression level of glyceraldehyde 3-phosphate dehydrogenase (GAPDH) gene.
ELISA was performed according to the manual included in the kit. The comparison with the vehicle group was performed by the Dunnett's Multiple Comparison test using Stat-View (SAS Institute).

[2] = test system: GalN/LPS-stimulated C3H/HeN female mice; test: Sepsis model (GalN/LPS), compound given orally; type: in vivo, mouse; conditions: oral 10, 30 or 100 mg/kg 10 min before GalN/LPS, vs vehicle group; for TNF-α mRNA levels in liver: liver 60 min after stimulant, real-time PCR; for TNF-α levels in plasma: plasma 90 min after stimulant, ELISA
Protocol: Similarly to Experiment 2, a mixed solution of GalN (20 mg) and LPS (2 μg) was intraperitoneally administered as a stimulant to a 7-week-old C3H/HeN female mice. Ten minutes before that, the compound of Example 112 or the compound of Example 157 each suspended in a vehicle (0.5% HPC) was orally administered to give a dose of 10 mg/kg, 30 mg/kg or 100 mg/kg. The TNF-α mRNA levels in liver 60 minutes after the administration of stimulant were measured by the real-time PCR method, and the TNF-α levels in plasma after 90 minutes were measured using the mouse TNF-α ELISA kit. The comparison with the vehicle group was performed by the Dunnett's Multiple Comparison test using Stat-View.

[3] = test system: carrageenin-induced foot edema in Wister male rat; test: Acute inflammation model: carrageenin foot edema, compound given orally; type: in vivo; conditions: oral 100 mg/kg immediately after carrageenin; foot volume 2 hours after carrageenin; vs vehicle group
Protocol: The foot edma ratio was calculated according to the formula: (volume of foot after administration of carrageenin−volume of foot before administration)/volume of foot before administration×100, and shown by the average of foot edma ratio +/−SE.
On the footpad of the right hind leg of a 5-week-old Wister male rat, 0.1 ml of 1 w/v % λ-carrageenin (Sigma) was subcutaneously administered. Immediately thereafter, the compound of Example 112 or the compound of Example 157 each suspended in a vehicle (0.5% HPC) was orally administered to give a dose of 100 mg/kg. As a positive control, indomethacin (sigma) was orally administered to give a dose of 10 mg/kg. The foot edema ratio was calculated according to the formula: (volume of foot 2 hours after administration of carrageenin−volume of foot before administration)/volume of foot before administration×100, using a volume meter (TK-101, manufactured by Unicom). For the comparison between the vehicle group and the drug administered group, a variance test was performed by the F-test and thereafter, Student's t test was performed when the variance was equal, or Aspin-Welch's t test was performed when the variance was not equal.

[4] = liver 60 min after stimulant, real-time PCR

SMILES: COC1=C(OC)C(=O)C(Cc2ccc(OC(C)=O)c(C(=O)Nc3ccc(C(F)(F)F)cc3)c2)=C(C)C1=O [Example 112, N-[5-(5,6-Dimethoxy-3-methyl-1,4-benzoquinon-2-yl)methyl-2-acetoxybenzoyl]-4-trifluoromethylaniline]
- IC50 (NF-κB): 14 µM
- IL-1β mRNA levels in liver [1, 4]: suppressed
- TNF-α mRNA levels in liver [1, 4]: suppressed dose dependently
- TNF-α levels in plasma ([1]; plasma 90 min after stimulant, ELISA): suppressed dose dependently
- TNF-α mRNA levels in liver [2]: suppressed dose dependently
- TNF-α levels in plasma [2]: suppressed dose dependently
- acute inflammation (foot edema) caused by carrageenin [3]: significantly suppressed

SMILES: COC1=C(OC)C(=O)C(Cc2ccc(O)c(C(=O)Nc3ccncc3)c2)=C(C)C1=O [Example 157, N-(Pyridin-4-yl)-5-(5,6-dimethoxy-3-methyl-1,4-benzoquinon-2-yl)methyl-2-hydroxybenzamide]
- IC50 (NF-κB): 7 µg/mL
- TNF-α mRNA levels in liver [2]: suppressed dose dependently
- TNF-α levels in plasma [2]: suppressed dose dependently
- acute inflammation (foot edema) caused by carrageenin [3]: significantly suppressed
- melting point: 171 to 172.5 °C
